Here are results for two compounds from paper PMC9304322, “Targeting retinoic acid receptor alpha-corepressor interaction activates chaperone-mediated autophagy and protects against retinal degeneration” (Nature Communications, 2022).

“And” between values parts separate entries of the source, which are not always exact repeats. Identical values can stand only once.

Series [1] is described as follows: In vitro solubility by nephelometry. In kind it is physicochemical. The note with it: in words. The protocol:
In vitro solubility in the following conditions A) HBSS/HEPES 10 mM/BSA 0.1% pH 6 B) HBSS/HEPES 10 mM/BSA 0.1% pH 7.4 C) TRIS/BSA 0.1% PBS (pH 7.4 and at indicated doses were measured by Nephelometry using the NEPHELOstar Galaxy apparatus (BMG Lab Technologies). In vitro stability in human, mouse and rat liver microsomes and permeability using a bidirectional permeability assay with CaCo-2 cells (pH 6.5/7.4) assays were performed with standard methodology and analyzed by LC-MS/MS. at SIMM-SERVIER joint Biopharmacy Laboratory. ADME properties for CA39 and CA77 were predicted by QikProp (Schrödinger, LLC, Releases 2016-2020) software.

In series [2] the test system is lamp2a mRNA. As to the kind of experiment: lamp2a mRNA in hippocampus of treated KFERQ-Dendra mice. In kind it is in vivo, mouse. The note with it: for Fig. 3e value relative to Vehicle: single replicate values, one sample t test; for mRNA levels of lamp2a (Fig. 4d), individual mice / mRNA levels of lamp2a (Fig. 4d), mean: hippocampus, i.p. 30 mg/kg bw daily for three days, vehicle mean = 1.000; for mRNA levels of lamp2a (Fig. 4d), individual mice: 30 mg/kg; for mRNA levels of lamp2a (Fig. 4d), mean: n = 4 mice. The protocol: C57BL/6 J mice wild-type (WT) and homozygous for the Pde6 mutation (rd10 mouse model of retinal degeneration) were obtained from The Jackson Laboratory and experiments were performed at the age indicated in each part of the study. C57BL/6 KFERQ-Dendra mice were generated by back-crossing FVB KFERQ-Dendra mice with wild-type C57BL/6 mice for 8 generations. Both male and female animals were used in this study in equally distribution groups. However, results from both sexes were pooled, because of absence of significant differences in any of the parameters analyzed after statistical analysis with a mixed model of two-way ANOVA sex and treatment as independent variables and the corresponding measure as dependent variable. All animals were housed in a barrier-controlled facility (19–23 °C 30–60% relative humidity; 12 h light/dark cycle) with ad libitum access to standard chow pellets (protein 19 gm%/carbohydrate 67 gm%/fat 4 gm%) and water. For animal administration of CA compounds, a formula containing 30% PEG 400 (Sigma, #8.0745), 65% of 5% glucose solution, 5% Tween 80 (Sigma, #P1754) was used to dissolve them. CA compounds were prepared freshly by adding 5% DMSO and sonicating for 1 h. Treatment of KFERQ-Dendra mice with the CA compounds was done at 4 months of age by i.p. daily injection of 30 mg/kg bw or vehicle for three consecutive days and tissues collected 6 h after the last injection. In the case of rd10 mice, animals were daily injected from P18 to P25 with CA77 (40 mg/kg bw). In the case of intravitreal administration, a single intravitreal injection was applied at P18 with CA77 (40 µM) in DMSO/PBS and the contralateral eye was injected with PBS and DMSO at same concentration. At P26, mice were sacrificed and eyes fixed overnight with 4% PFA (Sigma, #P6148) in PBS at 4 °C for immunofluorescence or retinas dissected and immediately frozen for biochemistry. Distribution of animals in the vehicle or treatment group was done randomly. ICR (CD-1) outbred 3 months old male mice from ENVIGO were used for the pharmacokinetic studies (see pharmacokinetic section for housing and handling details). All animal studies and procedures complied with ethical regulations, were performed in accordance with the European Union guidelines and the ARVO Statement for the Use of Animals in Ophthalmic and Vision Research and were approved by the Institutional Animal Care and Use Committee at the Albert Einstein College of Medicine, the CSIC Bioetica Comite and approved by the Comunidad de Madrid, PROEX232/17.
RNA was extracted from individual retinas or tissue sections (brain, liver). Total RNA from retinas was extracted using TRIzol Reagent (Invitrogen, # 15596-018), and reverse transcription was performed using the High-Capacity cDNA Reverse Transcription Kit (Applied Biosystems, # 4374966) according to the manufacturer’s instructions. Quantitative real-time PCR was performed in a Light Cycler 480 Instrument (Roche) with Taqman LightCycler 480 probes Master Mix (Roche, #4887301001) using Taqman assays (Life Technologies). For cells in culture, RNA was extracted using RNeasy Plus Mini Kit (Qiagen, #74034), and reverse transcription was performed using Superscript III (Invitrogen, #18080051). Quantitative RT-PCR analysis were performed using Power SYBR Green PCR Master Mix (Applied Biosystems, #4368708) on a StepOne Plus Real-Time PCR System (Applied Biosystems). Mm01184405_m1 probe (Thermofisher) was used for rhodopsin and the sequence of all the other probes used for qPCR is included in Supplementary Table 2.

Consider `CC(=O)Nc1ccc(C2=Nc3ccc(Cl)cc3OC2)cc1` [CA77], for which the solubility entry in series [1] is “reasonable”. For the same compound, in series [2], the “Fig. 3e value relative to Vehicle” value was 2.04 and 2.28 and 1.87 and 1.53 and 2.54 and 2.31; the “mRNA levels of lamp2a (Fig. 4d), individual mice” value is 1.395 and 1.349 and 1.27 and 1.907; the “mRNA levels of lamp2a (Fig. 4d), mean” value stood at 1.480.

Consider `Clc1ccc2c(c1)OCC(c1ccc(-c3ccccc3)cc1)=N2` [CA39], for which the solubility result in series [1] is recorded as “reasonable”. In series [2], the “Fig. 3e value relative to Vehicle” value was 1.07 and 1.28 and 1.20 and 1.32 and 1.95 and 2.13; the “mRNA levels of lamp2a (Fig. 4d), individual mice” value is 1.581 and 1.814 and 1.628 and 1.163; the “mRNA levels of lamp2a (Fig. 4d), mean” value came to 1.547.
